Measured values published in the supplement of paper PMC11208160.

Assay: recombinant UMI read abundance after kanamycin selection (control-corrected) (log10(CPM+1)); higher = more efficient recombination; extreme values may be limits of the assay; sequences stand for … in AGTGCAGAGAAAATCGGCCAGTTTTCTCTGCCTGCAGTCCGCATGCCGTGGGACCCCTTGGGTTCTAACCTGTTGCCTAGATTTATGCAGCGGACTGCCTTTCTCCCAAAGTGATAAACCGG…AGGTTGGTTTCACT; site = the 11-nt donor
Summary of the method: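 Pooled Escherichia coli screen of donor and donor-binding-loop pairs for the IS621 bridge recombinase. Each pair sits with a 12-nt UMI on a plasmid carrying a promoterless kanamycin gene. The library was co-electroporated with a target plasmid encoding a fixed target and T7-inducible recombinase, then plated with IPTG (0.07 mM) plus kanamycin, or unselected, each in two replicates. Recombinant UMIs were PCR-amplified across the donor–target junction and sequenced. Counts became CPM, averaged over replicates, scaled by control-derived factors and reported as log10(CPM+1).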

Row | Sequence | recombinant UMI read abundance (log10)
1 | AGCCTTACATGGACCGGTTTTCCCGGTAATCCGTATTTGAC (site AGCCTTGCTGT) | 0
2 | AGCCTTACATGGACCGGTTTTCCCGGTAATCCGTATTTGAC (site AGCCTTTCTGT) | 0
3 | AGCCTTGCATGGACCGGTTTTCCCGGTAATCCGTATTTGTA (site AGCCTTGCTTA) | 0.019
4 | AGCCTTTCATGGACCGGTTTTCCCGGTAATCCGTATTTGGC (site AGCCTTTCTGA) | 0
5 | AGCCTTTCATGGACCGGTTTTCCCGGTAATCCGTATTTGGC (site AGCCTTTCTGC) | 0
6 | AGCCTTTCATGGACCGGTTTTCCCGGTAATCCGTATTTGGC (site AGCCTTTCTGG) | 0
7 | AGCCTTTCATGGACCGGTTTTCCCGGTAATCCGTATTTGGC (site AGCCTTTCTGT) | 0
8 | AGCGAGCCATGGACCGGTTTTCCCGGTAATCCGTATTTGTA (site AGCGAGCCTTA) | 0.53
9 | AGCGAGCCATGGACCGGTTTTCCCGGTAATCCGTATTTGTT (site AGCGAGCCTAA) | 0.501
10 | AGCGGATCATGGACCGGTTTTCCCGGTAATCCGTATTTGAG (site AGCGGATCTCT) | 2.33
11 | AGCGTGGCATGGACCGGTTTTCCCGGTAATCCGTATTTGGG (site AGCGTGGCTCC) | 0.277
12 | AGCGTTTCATGGACCGGTTTTCCCGGTAATCCGTATTTGAC (site AGCATTTCTGT) | 0
13 | AGCGTTTCATGGACCGGTTTTCCCGGTAATCCGTATTTGAC (site AGCCTTTCTGT) | 0
14 | AGCGTTTCATGGACCGGTTTTCCCGGTAATCCGTATTTGAC (site AGCGTTTCTGT) | 2.63
15 | AGCGTTTCATGGACCGGTTTTCCCGGTAATCCGTATTTGAC (site AGCTTTTCTGT) | 0.136
16 | AGCTACGCATGGACCGGTTTTCCCGGTAATCCGTATTTGTC (site AGCTACGCTGA) | 2.27
17 | AGCTAGACATGGACCGGTTTTCCCGGTAATCCGTATTTGGG (site AACTAGACTCC) | 0.0198
18 | AGCTAGACATGGACCGGTTTTCCCGGTAATCCGTATTTGGG (site ACCTAGACTCC) | 0.239
19 | AGCTAGACATGGACCGGTTTTCCCGGTAATCCGTATTTGGG (site AGCTAGACTCC) | 0.0244
20 | AGCTAGACATGGACCGGTTTTCCCGGTAATCCGTATTTGGG (site ATCTAGACTCC) | 0.0227
21 | AGCTATTCATGGACCGGTTTTCCCGGTAATCCGTATTTGGC (site AGCTATTCTGC) | 0.69
22 | AGCTCAGCATGGACCGGTTTTCCCGGTAATCCGTATTTGCG (site AGCTCAGCTCA) | 0.0116
23 | AGCTCAGCATGGACCGGTTTTCCCGGTAATCCGTATTTGCG (site AGCTCAGCTCC) | 0.00908
24 | AGCTCAGCATGGACCGGTTTTCCCGGTAATCCGTATTTGCG (site AGCTCAGCTCG) | 0.537
25 | AGCTCAGCATGGACCGGTTTTCCCGGTAATCCGTATTTGCG (site AGCTCAGCTCT) | 0.277

Row | Sequence | recombinant UMI read abundance (log10)
26 | AGCTCCGCATGGACCGGTTTTCCCGGTAATCCGTATTTGCG (site AGCTCCGCTCG) | 0.271
27 | AGCTGGTCATGGACCGGTTTTCCCGGTAATCCGTATTTGTA (site AGCTGGTCTTA) | 0.951
28 | AGCTTAGCATGGACCGGTTTTCCCGGTAATCCGTATTTGGG (site AGCTAAGCTCC) | 0.0186
29 | AGCTTAGCATGGACCGGTTTTCCCGGTAATCCGTATTTGGG (site AGCTCAGCTCC) | 0.0187
30 | AGCTTAGCATGGACCGGTTTTCCCGGTAATCCGTATTTGGG (site AGCTGAGCTCC) | 0.034
31 | AGCTTAGCATGGACCGGTTTTCCCGGTAATCCGTATTTGGG (site AGCTTAGCTCC) | 0.0198
32 | AGGAAACCATGGACCGGTTTTCCCGGTAATCCGTATTTGTT (site AGGAAACCTAA) | 0
33 | AGGAAACCATGGACCGGTTTTCCCGGTAATCCGTATTTGTT (site CGGAATCCTAA) | 0
34 | AGGAACACATGGACCGGTTTTCCCGGTAATCCGTATTTGAA (site AGGAACACTTT) | 2.29
35 | AGGAACACATGGACCGGTTTTCCCGGTAATCCGTATTTGAA (site AGGAAGACTTG) | 0
36 | AGGAACCCATGGACCGGTTTTCCCGGTAATCCGTATTTGCA (site AGGAACCCTTG) | 0.786
37 | AGGAACCCATGGACCGGTTTTCCCGGTAATCCGTATTTGCA (site AGGAAGACTTG) | 0
38 | AGGAAGACATGGACCGGTTTTCCCGGTAATCCGTATTTGAA (site AGGAAGACTTA) | 0.985
39 | AGGAAGACATGGACCGGTTTTCCCGGTAATCCGTATTTGAA (site AGGAAGACTTC) | 0.592
40 | AGGAAGACATGGACCGGTTTTCCCGGTAATCCGTATTTGAA (site AGGAAGACTTG) | 0.298
41 | AGGAAGACATGGACCGGTTTTCCCGGTAATCCGTATTTGAA (site AGGAAGACTTT) | 2.37
42 | AGGAAGACATGGACCGGTTTTCCCGGTAATCCGTATTTGCA (site AAGAACACTTG) | 0
43 | AGGAAGACATGGACCGGTTTTCCCGGTAATCCGTATTTGCA (site AAGAAGACTGG) | 0
44 | AGGAAGACATGGACCGGTTTTCCCGGTAATCCGTATTTGCA (site AAGAAGACTTG) | 1.06
45 | AGGAAGACATGGACCGGTTTTCCCGGTAATCCGTATTTGCA (site AAGAAGACTTT) | 0.0128
46 | AGGAAGACATGGACCGGTTTTCCCGGTAATCCGTATTTGCA (site AAGAAGCCTTG) | 0
47 | AGGAAGACATGGACCGGTTTTCCCGGTAATCCGTATTTGCA (site AAGAGGACTTG) | 0.101
48 | AGGAAGACATGGACCGGTTTTCCCGGTAATCCGTATTTGCA (site AAGTAGACTTG) | 1.23
49 | AGGAAGACATGGACCGGTTTTCCCGGTAATCCGTATTTGCA (site AATAAGACTTG) | 1.43
50 | AGGAAGACATGGACCGGTTTTCCCGGTAATCCGTATTTGCA (site ACAAAGACTTG) | 1.25

Row | Sequence | recombinant UMI read abundance (log10)
51 | AGGAAGACATGGACCGGTTTTCCCGGTAATCCGTATTTGCA (site ACGAAAACTTG) | 0
52 | AGGAAGACATGGACCGGTTTTCCCGGTAATCCGTATTTGCA (site ACGAAGACTCG) | 0.0101
53 | AGGAAGACATGGACCGGTTTTCCCGGTAATCCGTATTTGCA (site ACGAAGACTTA) | 0.00527
54 | AGGAAGACATGGACCGGTTTTCCCGGTAATCCGTATTTGCA (site ACGAAGACTTG) | 0.832
55 | AGGAAGACATGGACCGGTTTTCCCGGTAATCCGTATTTGCA (site ACGAAGTCTTG) | 0
56 | AGGAAGACATGGACCGGTTTTCCCGGTAATCCGTATTTGCA (site ACGATGACTTG) | 0
57 | AGGAAGACATGGACCGGTTTTCCCGGTAATCCGTATTTGCA (site ACGGAGACTTG) | 2.51
58 | AGGAAGACATGGACCGGTTTTCCCGGTAATCCGTATTTGCA (site AGAAAAACTTG) | 0
59 | AGGAAGACATGGACCGGTTTTCCCGGTAATCCGTATTTGCA (site AGAAAGACTCG) | 0.0197
60 | AGGAAGACATGGACCGGTTTTCCCGGTAATCCGTATTTGCA (site AGAAAGACTTA) | 0.795
61 | AGGAAGACATGGACCGGTTTTCCCGGTAATCCGTATTTGCA (site AGAAAGACTTG) | 2.32
62 | AGGAAGACATGGACCGGTTTTCCCGGTAATCCGTATTTGCA (site AGAAAGTCTTG) | 0.0125
63 | AGGAAGACATGGACCGGTTTTCCCGGTAATCCGTATTTGCA (site AGAATGACTTG) | 0.777
64 | AGGAAGACATGGACCGGTTTTCCCGGTAATCCGTATTTGCA (site AGAGAGACTTG) | 1.79
65 | AGGAAGACATGGACCGGTTTTCCCGGTAATCCGTATTTGCA (site AGCAAGACTAG) | 0.0137
66 | AGGAAGACATGGACCGGTTTTCCCGGTAATCCGTATTTGCA (site AGCAAGACTTC) | 0.00298
67 | AGGAAGACATGGACCGGTTTTCCCGGTAATCCGTATTTGCA (site AGCAAGACTTG) | 0.723
68 | AGGAAGACATGGACCGGTTTTCCCGGTAATCCGTATTTGCA (site AGCAAGGCTTG) | 0.00883
69 | AGGAAGACATGGACCGGTTTTCCCGGTAATCCGTATTTGCA (site AGCAATACTTG) | 0
70 | AGGAAGACATGGACCGGTTTTCCCGGTAATCCGTATTTGCA (site AGCACGACTTG) | 0
71 | AGGAAGACATGGACCGGTTTTCCCGGTAATCCGTATTTGCA (site AGCCAGACTTG) | 0.654
72 | AGGAAGACATGGACCGGTTTTCCCGGTAATCCGTATTTGCA (site AGGAAAACTCG) | 0
73 | AGGAAGACATGGACCGGTTTTCCCGGTAATCCGTATTTGCA (site AGGAAAACTTA) | 0
74 | AGGAAGACATGGACCGGTTTTCCCGGTAATCCGTATTTGCA (site AGGAAAACTTG) | 0.57
75 | AGGAAGACATGGACCGGTTTTCCCGGTAATCCGTATTTGCA (site AGGAAATCTTG) | 0
